Like-named read-outs stand apart in the source and are kept apart here.
Legend:
PR [1] = molecular target: T1, PR (Homo sapiens, UniProt P06401); experiment: Cotransfection assay, PR agonist activity in CV-1 cells; type: cell-based; conditions: for Emax: CV-1, read-out: PR Agonist CV-1 Cells Efficacy
T1 construct: expressed in transfected cells; host or cells: CV-1 cells (African green monkey kidney fibroblasts), transiently transfected
T1 sequence (P06401 1-933): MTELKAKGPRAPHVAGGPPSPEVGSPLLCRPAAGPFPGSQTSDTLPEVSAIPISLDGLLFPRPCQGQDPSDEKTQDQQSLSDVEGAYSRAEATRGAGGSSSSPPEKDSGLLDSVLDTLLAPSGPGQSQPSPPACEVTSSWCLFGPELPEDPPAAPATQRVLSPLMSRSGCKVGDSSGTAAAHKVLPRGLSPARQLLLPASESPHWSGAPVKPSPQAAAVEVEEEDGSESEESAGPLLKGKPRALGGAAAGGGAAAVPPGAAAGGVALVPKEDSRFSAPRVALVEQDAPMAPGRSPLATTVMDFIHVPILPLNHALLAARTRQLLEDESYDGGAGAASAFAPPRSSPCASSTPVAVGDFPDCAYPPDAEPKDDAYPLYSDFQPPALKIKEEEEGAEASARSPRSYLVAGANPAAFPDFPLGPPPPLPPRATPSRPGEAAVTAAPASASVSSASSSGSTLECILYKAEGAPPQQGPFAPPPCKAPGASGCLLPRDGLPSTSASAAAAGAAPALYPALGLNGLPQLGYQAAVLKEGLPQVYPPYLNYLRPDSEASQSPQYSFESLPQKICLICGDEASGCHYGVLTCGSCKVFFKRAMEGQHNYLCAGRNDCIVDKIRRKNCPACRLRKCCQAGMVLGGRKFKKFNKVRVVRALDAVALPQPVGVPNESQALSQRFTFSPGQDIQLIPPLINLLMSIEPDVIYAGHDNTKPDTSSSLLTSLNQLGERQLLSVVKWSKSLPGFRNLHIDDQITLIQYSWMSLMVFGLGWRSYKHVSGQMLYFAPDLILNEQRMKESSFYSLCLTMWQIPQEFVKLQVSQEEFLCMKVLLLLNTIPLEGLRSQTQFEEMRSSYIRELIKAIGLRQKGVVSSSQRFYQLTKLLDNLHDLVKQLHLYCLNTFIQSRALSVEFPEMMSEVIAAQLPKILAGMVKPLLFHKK
Experimental: (§1) Briefly, the cotransfection assays were carried out in CV-1 cells (African green monkey kidney fibroblasts), which were transiently transfected, by the standard calcium phosphate coprecipitation procedure (Berger, et al., J. Steroid Biochem. Mol. Bio. 1992, 41, 733–738) with the Plasmid containing receptor, MTV-LUC reporter, pRS-β-Gal, and filler DNA (Rous sarcoma virus chloramphenicol acetyltransferase). […] All the cotransfection experiments were carried out in 96-well plates by automation (Beckman Biomomek automated workstation).

PR [2] = molecular target: T1, PR; experiment: Cotransfection assay, PR antagonist activity in CV-1 cells; type: cell-based; conditions: for Emax: percent maximal response relative to reference antagonist, read-out: PR Antagonist CV-1 Cells Efficacy
Experimental: as §1

hPR-A = molecular target: T2, hPR-A (Homo sapiens, UniProt P06401); experiment: Receptor competitive binding assay; conditions: read-out: PR Binding Ki
T2 sequence (P06401 1-769 isoform P06401-2): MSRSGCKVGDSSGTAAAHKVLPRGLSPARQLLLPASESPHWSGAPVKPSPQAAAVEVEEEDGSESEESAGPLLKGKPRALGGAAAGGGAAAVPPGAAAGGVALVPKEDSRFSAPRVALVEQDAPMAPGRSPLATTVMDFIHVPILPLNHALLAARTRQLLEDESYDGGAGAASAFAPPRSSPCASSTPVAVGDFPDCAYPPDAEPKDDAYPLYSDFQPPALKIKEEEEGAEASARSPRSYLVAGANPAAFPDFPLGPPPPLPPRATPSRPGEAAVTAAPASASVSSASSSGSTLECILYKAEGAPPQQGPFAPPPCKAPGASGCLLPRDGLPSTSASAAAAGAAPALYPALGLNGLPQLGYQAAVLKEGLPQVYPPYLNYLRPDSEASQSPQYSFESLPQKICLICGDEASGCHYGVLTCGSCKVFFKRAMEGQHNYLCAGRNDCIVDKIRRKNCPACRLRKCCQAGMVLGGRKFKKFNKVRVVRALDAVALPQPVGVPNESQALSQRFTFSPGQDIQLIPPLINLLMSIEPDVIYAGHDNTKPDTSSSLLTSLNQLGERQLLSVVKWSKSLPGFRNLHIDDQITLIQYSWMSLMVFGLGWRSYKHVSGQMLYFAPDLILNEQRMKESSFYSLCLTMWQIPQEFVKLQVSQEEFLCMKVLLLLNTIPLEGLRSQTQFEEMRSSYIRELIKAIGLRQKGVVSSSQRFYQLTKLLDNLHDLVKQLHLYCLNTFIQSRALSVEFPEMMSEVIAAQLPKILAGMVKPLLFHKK
Text: The preparation of receptor binding assays for hPR-A was described in literature (Pathirana, et al., Mol. Pharm. 1995, 47, 630–635.)

[3] = CV-1 cells, MTV-LUC reporter, read-out: PR Agonist CV-1 Cells Potency (EC50)
[4] = CV-1 cells, MTV-LUC reporter, read-out: PR Antagonist CV-1 Cells Potency (IC50)

**Q.** For `CC1=CC(C)(C)Nc2ccc3c(c21)C(=C1SCCCS1)Oc1ccc(F)cc1-3` [Compound 10, 9-Fluoro-5-(1,3-dithia-2-cyclohexylidene)-1,2-dihydro-2,2,4-trimethyl-5H-chromeno[3,4-f]quinoline], which EC50 (PR [1]) is on record?
**A.** The EC50 was 2 nM.

**Q.** And the Emax (PR [1])?
**A.** The Emax was 144%.

**Q.** What about the IC50 (PR [2]) of the same compound?
**A.** The IC50 was > 1000 nM.

**Q.** And the Emax (PR [2]; CV-1 cells)?
**A.** The Emax was < 20%.

**Q.** What about the Ki (hPR-A) of the same compound?
**A.** The Ki was 6.3 nM.

**Q.** And the melting point?
**A.** The melting point was 120 to 122 °C.

**Q.** For `COc1ccc2c(c1)OC(=C1SCCCS1)c1c-2ccc2c1C(C)=CC(C)(C)N2` [Compound 13, 8-methoxy-5-(1,3-dithia-2-cyclohexylidene)-1,2-dihydro-2,2,4-trimethyl-5H-chromeno[3,4-f]quinoline], which Emax (PR [1]) is on record?
**A.** Its Emax is 56%.

**Q.** What about the EC50 (PR [1]; [3]) of the same compound?
**A.** Its EC50 is 32 nM.

**Q.** What about the IC50 (PR [2]; [4]) of the same compound?
**A.** Its IC50 is > 1000 nM.

**Q.** What about the Emax (PR [2]; CV-1 cells) of the same compound?
**A.** The Emax was < 20%.

**Q.** And the Ki (hPR-A)?
**A.** Its Ki is 14 nM.

**Q.** With `CC1=CC(C)(C)Nc2ccc3c(c21)C(=C1SCCCS1)Oc1c(F)cc(F)cc1-3` [Compound 15, 7,9-difluoro-5-(1,3-dithia-2-cyclohexylidene)-1,2-dihydro-2,2,4-trimethyl-5H-chromeno[3,4-f]quinoline] as the compound, how does the Emax (PR [1]) read?
**A.** Its Emax is 155%.

**Q.** What about the EC50 (PR [1]; [3]) of the same compound?
**A.** The EC50 was 5.3 nM.

**Q.** And the IC50 (PR [2]; [4])?
**A.** Its IC50 is > 1000 nM.

**Q.** And the Emax (PR [2]; CV-1 cells)?
**A.** Its Emax is < 20%.

**Q.** What about the Ki (hPR-A) of the same compound?
**A.** The Ki was 3.7 nM.

**Q.** Which Emax (PR [1]) does the source give for `CC1=CC(C)(C)Nc2ccc3c(c21)C(=C1SCCCS1)Oc1c(F)cccc1-3` [Compound 17, 7-fluoro-5-(1,3-dithia-2-cyclohexylidene)-1,2-dihydro-2,2,4-trimethyl-5H-chromeno[3,4-f]quinoline] here?
**A.** Its Emax is 107%.

**Q.** What about the EC50 (PR [1]; [3]) of the same compound?
**A.** The EC50 was 11 nM.

**Q.** What about the IC50 (PR [2]; [4]) of the same compound?
**A.** Its IC50 is > 1000 nM.

**Q.** And the Emax (PR [2]; CV-1 cells)?
**A.** The Emax was < 20%.

**Q.** What about the Ki (hPR-A) of the same compound?
**A.** Its Ki is 4.3 nM.

**Q.** Which Emax (PR [1]) does the source give for `CC1=CC(C)(C)Nc2ccc3c(c21)C(=C1CCCCC1)Oc1c(F)cccc1-3` [Compound 19, 7-fluoro-5-cyclohexylidene-1,2-dihydro-2,2,4-trimethyl-5H-chromeno[3,4-f]quinoline] here?
**A.** Its Emax is 48%.

**Q.** What about the EC50 (PR [1]; [3]) of the same compound?
**A.** Its EC50 is 38 nM.

**Q.** What about the Ki (hPR-A) of the same compound?
**A.** The Ki was 74 nM.

**Q.** With `CC1=CC(C)(C)Nc2ccc3c(c21)C(=C1CCCCC1)Oc1c(F)cc(F)cc1-3` [Compound 20, 7,9-difluoro-5-cyclohexylidene-1,2-dihydro-2,2,4-trimethyl-5H-chromeno[3,4-f]quinoline] as the compound, how does the Emax (PR [1]) read?
**A.** The Emax was 82%.

**Q.** And the EC50 (PR [1]; [3])?
**A.** The EC50 was 16 nM.

**Q.** And the IC50 (PR [2]; [4])?
**A.** Its IC50 is > 1000 nM.

**Q.** And the Emax (PR [2]; CV-1 cells)?
**A.** Its Emax is < 20%.

**Q.** And the Ki (hPR-A)?
**A.** The Ki was 39 nM.

**Q.** Which results are given for `CC1(C)C=Cc2c(ccc3c2C(=C2SCCCS2)Oc2c(F)cccc2-3)N1` [Compound 21, 7-fluoro-5-(1,3-dithia-2-cyclohexylidene)-1,2-dihydro-2,2-dimethyl-5H-chromeno[3,4-f]quinoline]?
**A.** Emax (PR [1]): 45%; EC50 (PR [1]; [3]): 32 nM

**Q.** With `CC1=CC(C)(C)Nc2ccc3c(c21)C(=C1C=CCCC1)Oc1c(F)cccc1-3` [Compound 23, 7-fluoro-5-(2-cyclohexenylidene)-1,2-dihydro-2,2,4-trimethyl-5H-chromeno[3,4-f]quinoline] as the compound, how does the Emax (PR [1]) read?
**A.** The Emax was 70%.

**Q.** What about the EC50 (PR [1]; [3]) of the same compound?
**A.** Its EC50 is 35 nM.

**Q.** And the IC50 (PR [2]; [4])?
**A.** The IC50 was > 1000 nM.

**Q.** And the Emax (PR [2]; CV-1 cells)?
**A.** Its Emax is < 20%.

**Q.** What about the Ki (hPR-A) of the same compound?
**A.** The Ki was 22 nM.

**Q.** Which Emax (PR [1]) does the source give for `CC(=O)[C@H]1CC[C@H]2[C@@H]3CCC4=CC(=O)CC[C@]4(C)[C@H]3CC[C@]12C` [Prog, progesterone, reference compound] here?
**A.** The Emax was 100%.

**Q.** And the Emax (PR [2]; CV-1 cells)?
**A.** Its Emax is < 20%.

**Q.** For `CC#C[C@]1(O)CC[C@H]2[C@@H]3CCC4=CC(=O)CCC4=C3[C@@H](c3ccc(N(C)C)cc3)C[C@@]21C` [RU486, mifepristone, reference compound], which “PR Agonist CV-1 Cells Efficacy” value (PR [1]; CV-1 cells, percent maximal response relative to progesterone) is on record?
**A.** The value was “na (na = not active (i.e. efficacy of <20 and potency of >1,000))”.

**Q.** Which Emax (PR [1]) does the source give for `CN(C)c1ccc([C@H]2C[C@]3(C)[C@@H](CC[C@]3(O)CCCO)[C@@H]3CCC4=CC(=O)CCC4=C32)cc1` [ZK299, reference compound] here?
**A.** Its Emax is < 20%.

**Q.** And the Emax (PR [2]; CV-1 cells)?
**A.** Its Emax is 99%.
